The IC50 is the midpoint of a concentration-inhibition curve.

The test system of data set [1] is LPS-activated J774A.1 macrophages. As to the kind of experiment: NF-κB signaling (IKK-α/IκB-α Western blot, p65 nuclear translocation ELISA). The format is cell-based, murine. To be noted: J774A.1, 10-40 µM 30 min, LPS 20 min. The procedure:
(§1) Cells were washed twice with ice-cold phosphate-buffered saline (PBS) and lysed on ice for 5 min with lysis buffer (20 mM Tris-HCl, pH 7.5, 150 mM NaCl, 1 mM Na 2EDTA, 1 mM EGTA, 1% Triton X-100, 2.5 mM sodium pyrophosphate, 1 mM beta-glycerophosphate, 1 mM Na 3VO4, 1 µg/ml of leupeptin, 1 mM PMSF, protease inhibitor cocktail). The lysate was then centrifuged at 12,000 x g at 4 °C for 10 min and the pellet discarded. Proteins in the supernatant were separated by SDS-PAGE and electrotransferred to a PVDF membrane (EMD Millipore Corporation), which was then blocked by incubation for 1 h at room temperature in blocking buffer [(5% nonfat milk in PBS containing 0.1% Tween 20 (PBST)], then incubated for 2 h at room temperature with the primary antibody diluted in blocking buffer. After three washes in PBST, the membrane was incubated for 1 h at room temperature with an appropriate HRP-conjugated secondary antibody diluted in blocking buffer and developed using an enhanced chemiluminescence Western blot detection system (EMD Millipore Corporation).
(§2) Nuclear proteins were extracted from RAW 264.7 and J774A.1 cells using a Nuclear Extract Kit (Active Motif) according to the manufacturer’s instructions and nuclear NF-κB p65 activation quantified using an ELISA-based TransAM NF-κB kit (Active Motif, Tokyo, Japan) according to the manufacturer’s protocol by reading the absorbance at 450 nm with a microplate absorbance reader (Bio-Rad Laboratories, Inc) and a reference wavelength of 655 nm.
(§3) Following LPS stimulation, IκB in the complex is phosphorylated by IκB kinase (IKK), ubiquitinated, and rapidly degraded in proteasomes, thus releasing NF-κB [30].
(§4) Figure 6 Effect of compound 1h on NF-κB activation in LPS-activated macrophages. (A) RAW 264.7 macrophages or (B) J774A.1 macrophages (both 5 × 10^5/ml; 1 ml) were incubated for 30 min with 10-40 µM compound 1h or DMSO, then LPS (1 µg/ml) was added and incubation continued for 20 min, then levels of phosphorylated and total IKK-α and IκB-α were measured by Western blotting. (C) RAW 264.7 macrophages or (D) J774A.1 macrophages (both 5 × 10^5/ml; 1 ml) were treated as in A and B, then nuclear translocation of NF-κB was analyzed by ELISA. (E) RAW-Blue^TM cells (5 × 10^5/ml; 1 ml) were incubated for 30 min with 2.5-40 µM compound 1h or DMSO, then LPS (1 µg/ml) was added and incubation continued for 24 h, then SEAP activity was measured by the QUANTI-Blue^TM assay and expressed as a percentage of that in the absence of compound 1h. In (A) and (B), the results are representative of those obtained in three different experiments. In (C-E), the data are expressed as the mean ± SD for three separate experiments. *, **, and *** indicate a significant difference at the level of p < 0.05, p < 0.01, and p < 0.001, respectively, compared to the DMSO/LPS group.
In general terms: A western blot detects proteins with antibodies after separation by electrophoresis.

Data set [2] has as its system LPS-activated RAW 264.7 macrophages. The description is as above. The class given is cell-based, murine. As to conditions: RAW 264.7, 10-40 µM 30 min, LPS 20 min. As to the method:
as §1, §2, §3, §4

In data set [3] the test system is RAW 264.7 cells. As to the kind of experiment: AlamarBlue assay for cell viability (cytotoxicity). As to conditions: read-out: IC50 (cytotoxicity), RAW 264.7 macrophages, 24 h treatment, 6.25-100 µM tested. (Resazurin is reduced to fluorescent resorufin, in cell work by metabolically active cells.)
Data set [4] relates to LPS-activated primary peritoneal macrophages. Nature of the data set: IL-6 and TNF-α secretion by ELISA. The format is cell-based, C57BL/6 mice. As to conditions: 10-40 µM, LPS 1 µg/ml 24 h. As to the method: The effects of the test samples on IL-1β, TNF-α, and IL-6 production were measured by ELISA according to the manufacturer’s instructions. In brief, 50 µl of biotinylated antibody reagent and 50 µl of supernatant were added to a stripwell plate precoated with anti-mouse IL-1β, TNF-α, or IL-6 antibodies, which was then incubated at room temperature for 2 h. After washing the plate three times with washing buffer, 100 µl of diluted streptavidin-HRP concentrate was added to each well and the plate incubated at room temperature for 30 min. […] After addition of 100 µl of stop solution to each well, the absorbance at 450 nm of each well was measured on a microplate reader.
Figure 3 Effect of compound 1h on LPS-induced secretion of IL-6 and TNF-α by J774A.1 macrophages, peritoneal macrophages, and JAWSII dendritic cells. (A) J774A.1 macrophages, (B) peritoneal macrophages, or (C) JAWSII dendritic cells (all 4 × 10^5/ml; 1 ml) were incubated for 30 min with 10-40 µM compound 1h or DMSO, then LPS (1 µg/ml) was added and incubation continued for 24 h, then IL-6 levels (left panels) and TNF-α levels (right panels) in the culture medium were measured by ELISA. The data are expressed as the mean ± SD for three separate experiments. *, **, and *** indicate a significant difference at the level of p < 0.05, p < 0.01, or p < 0.001, respectively, compared to the DMSO/LPS group.
(ELISA stands for enzyme-linked immunosorbent assay.)

Regarding `O=c1cc(O)cc(/C=C/C=C/C=C/C=C/c2[nH]ccc2Cl)o1` [compound 1h], in data set [1], the IκB-α degradation result was “had a inhibitory effect on IκB-α degradation”; the NF-κB nuclear translocation result was “inhibited NF-κB nuclear translocation”; the “Phosphorylation of IKK-α and IκB-α” value is “inhibited phosphorylation of IKK-α and IκB-α in a dose-dependent manner”. For the same compound, in data set [2], the IκB-α degradation entry was “had a inhibitory effect on IκB-α degradation”; the NF-κB nuclear translocation result is given as “inhibited NF-κB nuclear translocation”; the “Phosphorylation of IKK-α and IκB-α” value was “inhibited phosphorylation of IKK-α and IκB-α in a dose-dependent manner”. Further, the half-maximal inhibitory concentration (IC50) in data set [3] is > 100 µM. Besides, in data set [4], the “LPS-induced IL-6 secretion” value was “reduced secretion of IL-6 and TNF-α”; the “LPS-induced TNF-α secretion” value is “reduced secretion of IL-6 and TNF-α”.

The values above are taken from paper PMC3792051, “Polyenylpyrrole Derivatives Inhibit NLRP3 Inflammasome Activation and Inflammatory Mediator Expression by Reducing Reactive Oxygen Species Production and Mitogen-Activated Protein Kinase Activation” (PLoS ONE, 2013).
